{
  "source": "paper PMC6152701",
  "about": "“Synthesis and Bioactivity Characterization of Scutellarein Sulfonated Derivative” (Molecules : A Journal of Synthetic Chemistry and Natural …, 2017)",
  "key": {"[1]": {"test": "Aqueous solubility by UV spectrophotometry", "assay_type": "physicochemical", "procedure": "Scutellarin (1) and scutellarein (2) (300 μg) were dissolved in 25 mL CH3OH, and 3 (300 μg) was dissolved in 25 mL water. […] Each tested compound (250 μg) was ultrasound dissolved in 10 mL pure water for 1 h at 25 °C, and the solutions were stood for 30 min before centrifuging at the speed of 30,000 r/min. Absorbances of each compound were obtained by UV scanning, and the aqueous solubility of all three compounds were obtained through analysis of the standard curve."}, "[2]": {"tested_on": "Platelet-poor plasma (PPP), prothrombin time", "test": "Antithrombic assay: prothrombin time (PT)", "assay_type": "biochemical, New Zealand white rabbits", "conditions": "rabbit PPP, compound 100 μM, mean ± SD n = 4, blank plasma 5.03 ± 0.24", "description": "(§1) According to our previous studies, the antithrombotic activity could be estimated by measuring the prolongation of the plasma clotting time of thrombin time (TT), activated partial thromboplastin time (APTT), international normalized ratio (INR) increase in prothrombin time (PT), and reduction in fibrinogen (FIB) content.\n(§2) Male New Zealand white rabbits weighing 2–2.5 kg were obtained from the experimental animal center of Nanjing University of Chinese Medicine and were approved by Animal Ethics Committee of Nanjing University of Chinese Medicine. They were kept in plastic cages at 22 ± 2 °C with free access to pellet food and water and on a 12 h light/dark cycle. Animal welfare and experimental procedures were carried out in accordance with the guide for the care and use of laboratory animals (National Research Council of USA, 1996) and related ethical regulations of Nanjing University of Chinese Medicine. Rabbits were anesthetized with pentobarbital (50 mg/kg) and blood was drawn from the common carotid artery. Blood was collected into plastic tubes with 3.8% sodium citrate (citrate/blood: 1:9, v/v) for plasma anticoagulation. Platelet-poor plasma (PPP) was separated from blood by centrifugation at 3000 rpm for 10 min.\n(§3) TT, APTT, PT, and FIB were tested with commercial kits following the manufacturer’s instructions by a coagulometer (Model LG-PABER-I, Steellex Co., Beijing, China). All the compounds were dissolved in PBS with 20% DMSO, and the concentration was 100 μM. TT was determined by incubating 40 μL PPP solution for 3 min at 37 °C, followed by addition of 40 μL thrombin solution and 20 μL sample for 3 min at 37 °C. APTT was determined by incubating 10 μL sample solution and 50 μL PPP solution with 50 μL APTT-activating agent for 3 min at 37 °C, followed by the addition of 50 μL CaCl2. PT was determined by incubating 40 μL PPP solution for 3 min at 37 °C, followed by the addition of 40 μL thromboplastin agent and 20 μL sample. FIB was determined by incubating 10 μL PPP solution with 90 μL imidazole buffer for 3 min at 37 °C, followed by addition of 50 μL FIB agent and 10 μL sample solution. By measuring the prolongation of the plasma clotting time of thrombin time (TT), activated partial thromboplastin time (APTT), INR increase in prothrombin time (PT), and reduction in fibrinogen (FIB) content, the antithrombotic activity was assessed."}, "[3]": {"tested_on": "Platelet-poor plasma (PPP), fibrinogen", "test": "Antithrombic assay: fibrinogen (FIB) content", "assay_type": "biochemical, New Zealand white rabbits", "conditions": "rabbit PPP, compound 100 μM, mean ± SD n = 4, blank plasma 7.23 ± 0.38", "description": "as §1, §2, §3"}, "[4]": {"set-up": "method as in PMID 16997537", "conditions": "cited from earlier work"}, "[5]": {"tested_on": "Platelet-poor plasma (PPP), thrombin time", "test": "Antithrombic assay: thrombin time (TT)", "assay_type": "biochemical, New Zealand white rabbits", "conditions": "rabbit PPP, compound 100 μM, mean ± SD n = 4, blank plasma 19.85 ± 1.59", "description": "as §1, §2, §3"}, "[6]": {"tested_on": "Platelet-poor plasma (PPP), activated partial thromboplastin time", "test": "Antithrombic assay: activated partial thromboplastin time (APTT)", "assay_type": "biochemical, New Zealand white rabbits", "conditions": "rabbit PPP, compound 100 μM, mean ± SD n = 4, blank plasma 29.83 ± 3.86", "description": "as §1, §2, §3"}, "[7]": {"test": "DPPH-radical scavenging ability assay", "assay_type": "biochemical", "conditions": "DPPH 80 μmol/L in DMSO, 30 min in the dark", "procedure": "Antioxidants play important roles in removing free radicals, as antioxidants provide hydrogen to free radicals and prohibit the adverse reactions from destroying normal tissues. This assay was measured according to previous studies.\nThe following method was adopted to evaluate the 1,1-diphenyl-2-picrylhydrazyl (DPPH) scavenging property of the products: scutellarin (1), scutellarein (2), and 3 were dissolved in DMSO to result in final concentrations ranging from 16 to 250 μmol/L, and then DPPH (80 μmol/L, 100 μL) dissolved in DMSO was added in the testing samples. After incubating for 30 min in the dark, the scavenging effect was calculated according to the following equation:Scavenging effect (%) = [(1 − (A1 − A2)/A0] × 100%(1) where A0 is the absorbance of the control (without extract), A1 is the absorbance in the presence of the extract, and A2 is the absorbance without DPPH."}},
  "note": "Where “and” joins values, the source holds several entries; their conditions need not be identical. Equal entries are not always repeated.",
  "data": [
    {"smiles": "O=C(O)[C@H]1O[C@@H](Oc2cc3oc(-c4ccc(O)cc4)cc(=O)c3c(O)c2O)[C@H](O)[C@@H](O)[C@@H]1O", "note": "[Scutellarin (1), 4′,5,6-trihydroxyflavone-7-glucuronide]", "values": [
      {"measurement": "Solubility", "setting": "[1]; in pure water, 25 °C, UV spectrophotometry", "value": 7.62, "unit": "µg/mL"},
      {"measurement": "PT", "setting": "[2]", "value": "6.25 ± 0.08", "unit": "s"},
      {"measurement": "PT", "setting": "[2]; listed as scutellarin (1)", "value": 6.25, "unit": "s"},
      {"measurement": "FIB", "setting": "[3]", "value": "6.41 ± 0.15", "unit": "g/L"},
      {"measurement": "FIB", "setting": "[3]; listed as scutellarin (1)", "value": 6.41, "unit": "g/L"},
      {"measurement": "aqueous solubility", "setting": "[4]", "value": "14.4 ± 0.17", "unit": "µg/mL"},
      {"measurement": "TT", "setting": "[5]", "value": "23.25 ± 1.55", "unit": "s"},
      {"measurement": "TT", "setting": "[5]; listed as scutellarin (1)", "value": 23.25, "unit": "s"},
      {"measurement": "APTT", "setting": "[6]", "value": "33.78 ± 2.32", "unit": "s"},
      {"measurement": "APTT", "setting": "[6]; listed as scutellarin (1)", "value": 33.78, "unit": "s"},
      {"measurement": "IC50", "setting": "[7]", "value": 17.9, "unit": "µM"}
    ]},
    {"smiles": "O=c1cc(-c2ccc(O)cc2)oc2cc(O)c(O)c(O)c12", "note": "[Scutellarein (2), 5,6,7-Trihydroxy-2-(4-hydroxyphenyl)-4H-chromen-4-one]", "values": [
      {"measurement": "Solubility", "setting": "[1]; 1 h", "value": 6.85, "unit": "µg/mL"},
      {"measurement": "PT", "setting": "[2]", "value": "5.93 ± 0.81", "unit": "s"},
      {"measurement": "PT", "setting": "[2]; listed as scutellarein (2)", "value": 5.93, "unit": "s"},
      {"measurement": "FIB", "setting": "[3]", "value": "6.91 ± 0.12", "unit": "g/L"},
      {"measurement": "FIB", "setting": "[3]; listed as scutellarein (2)", "value": 6.91, "unit": "g/L"},
      {"measurement": "TT", "setting": "[5]", "value": "24.48 ± 1.18", "unit": "s"},
      {"measurement": "TT", "setting": "[5]; listed as scutellarein (2)", "value": 24.48, "unit": "s"},
      {"measurement": "APTT", "setting": "[6]", "value": "36.12 ± 2.20", "unit": "s"},
      {"measurement": "APTT", "setting": "[6]; listed as scutellarein (2)", "value": 36.12, "unit": "s"},
      {"measurement": "IC50", "setting": "[7]", "value": 16.1, "unit": "µM"}
    ]},
    {"smiles": "O=c1cc(-c2ccc(O)cc2)oc2c(S(=O)(=O)O)c(O)c(O)c(O)c12", "note": "[compound 3, 5,6,7-Trihydroxy-2-(4-hydroxyphenyl)-4-oxo-4H-chromene-8-sulfonic acid]", "values": [
      {"measurement": "solubility at 1 h", "setting": "[1]; 25 °C, water, thermodynamic from solid", "value": 1950, "unit": "µg/mL"},
      {"measurement": "PT", "setting": "[2]", "value": "6.33 s and 6.33 ± 1.87 s"},
      {"measurement": "FIB", "setting": "[3]", "value": "7.01 g/L and 7.01 ± 0.96 g/L"},
      {"measurement": "TT", "setting": "[5]", "value": "23.71 s and 23.71 ± 1.82 s"},
      {"measurement": "APTT", "setting": "[6]", "value": "30.33 s and 30.33 ± 1.06 s"},
      {"measurement": "IC50", "setting": "[7]", "value": 16.8, "unit": "µM"}
    ]}
  ]
}
